One assay deals with SREBP-2 (Homo sapiens (Human), UniProt Q12772). In words: In vitro assay SREBP-2: PathHunter U2OS SREBP-2 Nuclear Translocation Cell Line, U18666A-stimulated. It counts as cell-based. Conditions: PathHunter U2OS SREBP-2 nuclear translocation cells, U18666A 10 μM, overnight (16 hours).
The target in the next assay is LXRβ (Homo sapiens (Human), UniProt P55055). The assay can be described thus: In vitro assay LXRβ: PathHunter NHR CHO cells, LXRβ / Steroid Receptor Co-activator Peptide enzyme fragment complementation. It counts as cell-based. Conditions: PathHunter NHR CHO cells, full-length human LXRβ and SRCP, chemiluminescent signal; read-out: LXRβ PPI. In a few lines:
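Enzyme fragment complementation read-out: CHO cells stably expressing ProLink-tagged full-length human LXRβ plus nuclear enzyme acceptor–SRCP fusion, seeded and held overnight at 37° C. Medium with charcoal-dextran filtered serum; final vehicle 1%. Chemiluminescence measured after signal generation.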

Structures are written as SMILES.

Drawing on US20230340011A1 (Asteroid Therapeutics, priority 2022, published 2023), this text covers IC50 and EC50 for 17 compounds.

LXRβ, sequence (P55055 whole entry, the tested form may be a part): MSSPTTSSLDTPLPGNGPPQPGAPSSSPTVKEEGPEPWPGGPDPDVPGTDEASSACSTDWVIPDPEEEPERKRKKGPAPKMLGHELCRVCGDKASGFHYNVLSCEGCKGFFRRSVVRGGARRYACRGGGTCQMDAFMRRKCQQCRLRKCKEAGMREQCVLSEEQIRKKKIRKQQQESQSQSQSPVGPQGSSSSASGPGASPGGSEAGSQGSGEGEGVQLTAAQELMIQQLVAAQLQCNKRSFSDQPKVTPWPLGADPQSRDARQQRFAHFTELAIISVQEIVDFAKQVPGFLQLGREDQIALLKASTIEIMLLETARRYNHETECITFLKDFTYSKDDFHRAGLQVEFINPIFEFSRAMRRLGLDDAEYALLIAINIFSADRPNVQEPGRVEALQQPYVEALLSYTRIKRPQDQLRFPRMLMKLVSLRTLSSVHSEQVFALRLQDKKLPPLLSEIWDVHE

For orientation: IC50 means the point on the concentration scale where inhibition reaches its midpoint. Take `C[C@H](CCC(=O)N1CC(C)(CO)C1)[C@H]1CC[C@H]2[C@@H]3CC=C4C[C@@H](O)CC[C@]4(C)[C@H]3CC[C@]12C` [Example 555, (R)-4-((3S,8S,9S,10R,13R,14S,17R)-3-hydroxy-10,13-dimethyl-2,3,4,7,8,9,10,11,12,13,14,15,16,17-tetradecahydro-1H-cyclopenta[a]phenanthren-17-yl)-1-(3-(hydroxymethyl)-3-methylazetidin-1-yl)pentan-1-one]: the IC50 at SREBP-2 is less than 250 nM. Besides, on LXRβ, the EC50 is more than 10000 nM.

At SREBP-2, `C[C@H](CCC(=O)N1CCN(C(C)(C)C)CC1)[C@H]1CC[C@H]2[C@@H]3CC=C4C[C@@H](O)CC[C@]4(C)[C@H]3CC[C@]12C` [Example 557, (4R)-4-[(1R,3aS,3bS,7S,9aR,9bS,11aR)-7-hydroxy-9a,11a-dimethyl-1H,2H,3H,3aH,3bH,4H,6H,7H,8H,9H,9aH,9bH,10H,11H,11aH-cyclopenta[a]phenanthren-1-yl]-1-(4-tert-butylpiperazin-1-yl)pentan-1-one] came in with an IC50 of 250 to 1000 nM. Also, the EC50 on LXRβ is more than 10000 nM.

With `C[C@H](CCC(=O)N1CCN(c2ccnc(O)n2)CC1)[C@H]1CC[C@H]2[C@@H]3CC=C4C[C@@H](O)CC[C@]4(C)[C@H]3CC[C@]12C` [Example 559, (R)-4-((3S,8S,9S,10R,13R,14S,17R)-3-hydroxy-10,13-dimethyl-2,3,4,7,8,9,10,11,12,13,14,15,16,17-tetradecahydro-1H-cyclopenta[a]phenanthren-17-yl)-1-(4-(2-hydroxypyrimidin-4-yl)piperazin-1-yl)pentan-1-one], on SREBP-2, the IC50 was less than 250 nM. The EC50 on LXRβ is more than 10000 nM.

In the case of `C[C@H](CCC(=O)N1CCN(c2ccnc(N)n2)CC1)[C@H]1CC[C@H]2[C@@H]3CC=C4C[C@@H](O)CC[C@]4(C)[C@H]3CC[C@]12C` [Example 560, (R)-1-(4-(2-aminopyrimidin-4-yl)piperazin-1-yl)-4-((3S,8S,9S,10R,13R,14S,17R)-3-hydroxy-10,13-dimethyl-2,3,4,7,8,9,10,11,12,13,14,15,16,17-tetradecahydro-1H-cyclopenta[a]phenanthren-17-yl)pentan-1-one], the IC50 against SREBP-2 is less than 250 nM. Further, at LXRβ, the EC50 was more than 10000 nM.

In the case of `C[C@H](CCC(=O)N1CCN(c2ccnc(N(C)C)n2)CC1)[C@H]1CC[C@H]2[C@@H]3CC=C4C[C@@H](O)CC[C@]4(C)[C@H]3CC[C@]12C` [Example 562, (R)-1-(4-(2-(dimethylamino)pyrimidin-4-yl)piperazin-1-yl)-4-((3S,8S,9S,10R,13R,14S,17R)-3-hydroxy-10,13-dimethyl-2,3,4,7,8,9,10,11,12,13,14,15,16,17-tetradecahydro-1H-cyclopenta[a]phenanthren-17-yl)pentan-1-one], the IC50 against SREBP-2 was less than 250 nM. Further, the EC50 at LXRβ is more than 10000 nM.

For `CCOc1nccc(N2CCN(C(=O)CC[C@@H](C)[C@H]3CC[C@H]4[C@@H]5CC=C6C[C@@H](O)CC[C@]6(C)[C@H]5CC[C@]34C)CC2)n1` [Example 563, (R)-1-(4-(2-ethoxypyrimidin-4-yl)piperazin-1-yl)-4-((3S,8S,9S,10R,13R,14S,17R)-3-hydroxy-10,13-dimethyl-2,3,4,7,8,9,10,11,12,13,14,15,16,17-tetradecahydro-1H-cyclopenta[a]phenanthren-17-yl)pentan-1-one], on SREBP-2, the IC50 was less than 250 nM. The EC50 on LXRβ was more than 10000 nM.

Turning to `C[C@H](CCC(=O)N1CCN(c2ccnc(OCCO)n2)CC1)[C@H]1CC[C@H]2[C@@H]3CC=C4C[C@@H](O)CC[C@]4(C)[C@H]3CC[C@]12C` [Example 564, (4R)-4-[(1R,3aS,3bS,7S,9aR,9bS,11aR)-7-hydroxy-9a,11a-dimethyl-1H,2H,3H,3aH,3bH,4H,6H,7H,8H,9H,9aH,9bH,10H,11H,11aH-cyclopenta[a]phenanthren-1-yl]-1-{4-[2-(2-hydroxyethoxy)pyrimidin-4-yl]piperazin-1-yl}pentan-1-one], the IC50 at SREBP-2 is less than 250 nM. Besides, the EC50 at LXRβ is more than 10000 nM.

Compound `C[C@H](CCC(=O)N1CCN(C(=O)c2cnn(C)c2)[C@@H](C)C1)[C@H]1CC[C@H]2[C@@H]3CC=C4C[C@@H](O)CC[C@]4(C)[C@H]3CC[C@]12C` [Example 565, (4R)-4-[(1R,3aS,3bS,7S,9aR,9bS,11aR)-7-hydroxy-9a,11a-dimethyl-1H,2H,3H,3aH,3bH,4H,6H,7H,8H,9H,9aH,9bH,10H,11H,11aH-cyclopenta[a]phenanthren-1-yl]-1-[(3S)-3-methyl-4-(1-methyl-1H-pyrazole-4-carbonyl)piperazin-1-yl]pentan-1-one] yielded an IC50 on SREBP-2 of less than 250 nM. Also, the EC50 at LXRβ is more than 10000 nM.

On SREBP-2, `COC(=O)N1CCN(C(=O)CC[C@@H](C)[C@H]2CC[C@H]3[C@@H]4CC=C5C[C@@H](O)CC[C@]5(C)[C@H]4CC[C@]23C)C[C@@H]1C` [Example 566, Methyl (2S)-4-[(4R)-4-[(1R,3aS,3bS,7S,9aR,9bS,11aR)-7-hydroxy-9a,11a-dimethyl-1H,2H,3H,3aH,3bH,4H,6H,7H,8H,9H,9aH,9bH,10H,11H,11aH-cyclopenta[a]phenanthren-1-yl]pentanoyl]-2-methylpiperazine-1-carboxylate] yielded an IC50 of less than 250 nM. The EC50 at LXRβ is more than 10000 nM.

At SREBP-2, `C[C@H](CCC(=O)N1CCN(c2ccncc2)[C@@H](C)C1)[C@H]1CC[C@H]2[C@@H]3CC=C4C[C@@H](O)CC[C@]4(C)[C@H]3CC[C@]12C` [Example 567, (R)-4-((3S,8S,9S,10R,13R,14S,17R)-3-hydroxy-10,13-dimethyl-2,3,4,7,8,9,10,11,12,13,14,15,16,17-tetradecahydro-1H-cyclopenta[a]phenanthren-17-yl)-1-((S)-3-methyl-4-(pyridin-4-yl)piperazin-1-yl)pentan-1-one] yielded an IC50 of less than 250 nM. In addition, at LXRβ, the EC50 was more than 10000 nM.

Regarding `C[C@H](CCC(=O)N1CCN(C(=O)c2cnccn2)[C@@H](C)C1)[C@H]1CC[C@H]2[C@@H]3CC=C4C[C@@H](O)CC[C@]4(C)[C@H]3CC[C@]12C` [Example 568, (R)-4-((3S,8S,9S,10R,13R,14S,17R)-3-hydroxy-10,13-dimethyl-2,3,4,7,8,9,10,11,12,13,14,15,16,17-tetradecahydro-1H-cyclopenta[a]phenanthren-17-yl)-1-((S)-3-methyl-4-(pyrazine-2-carbonyl)piperazin-1-yl)pentan-1-one], at SREBP-2, the IC50 was less than 250 nM. Besides, the EC50 on LXRβ was more than 10000 nM.

Compound `CCC(=O)N1CCN(C(=O)CC[C@@H](C)[C@H]2CC[C@H]3[C@@H]4CC=C5C[C@@H](O)CC[C@]5(C)[C@H]4CC[C@]23C)C[C@@H]1C` [Example 569, (R)-4-((3S,8S,9S,10R,13R,14S,17R)-3-hydroxy-10,13-dimethyl-2,3,4,7,8,9,10,11,12,13,14,15,16,17-tetradecahydro-1H-cyclopenta [a]phenanthren-17-yl)-1-((S)-3-methyl-4-propionylpiperazin-1-yl)pentan-1-one] returned an IC50 against SREBP-2 of less than 250 nM. Further, on LXRβ, the EC50 is more than 10000 nM.

The compound `C[C@H](CCC(=O)N1CCN(C(=O)OC2CC2)[C@@H](C)C1)[C@H]1CC[C@H]2[C@@H]3CC=C4C[C@@H](O)CC[C@]4(C)[C@H]3CC[C@]12C` [Example 570, Cyclopropyl(S)-4-((R)-4-((3S,8S,9S,10R,13R,14S,17R)-3-hydroxy-10,13-dimethyl-2,3,4,7,8,9,10,11,12,13,14,15,16,17-tetradecahydro-1H-cyclopenta[a]phenanthren-17-yl)pentanoyl)-2-methylpiperazine-1-carboxylate] had an IC50 at SREBP-2 of less than 250 nM. Also, the EC50 on LXRβ is more than 10000 nM.

As for `C[C@H](CCC(=O)N1CC[C@H](Oc2ccncc2)[C@@H](C)C1)[C@H]1CC[C@H]2[C@@H]3CC=C4C[C@@H](O)CC[C@]4(C)[C@H]3CC[C@]12C` [Example 571, (R)-4-((3S,8S,9S,10R,13R,14S,17R)-3-hydroxy-10,13-dimethyl-2,3,4,7,8,9,10,11,12,13,14,15,16,17-tetradecahydro-1H-cyclopenta[a]phenanthren-17-yl)-1-((3S,4S)-3-methyl-4-(pyridin-4-yloxy)piperidin-1-yl)pentan-1-one], the IC50 against SREBP-2 is less than 250 nM. At LXRβ, the EC50 was more than 10000 nM.

For the compound `C[C@H](CCC(=O)N1CC[C@@H](Oc2ccncc2)[C@@H](C)C1)[C@H]1CC[C@H]2[C@@H]3CC=C4C[C@@H](O)CC[C@]4(C)[C@H]3CC[C@]12C` [Example 572, (R)-4-((3S,8S,9S,10R,13R,14S,17R)-3-hydroxy-10,13-dimethyl-2,3,4,7,8,9,10,11,12,13,14,15,16,17-tetradecahydro-1H-cyclopenta[a]phenanthren-17-yl)-1-((3S,4R)-3-methyl-4-(pyridin-4-yloxy)piperidin-1-yl)pentan-1-one], the concentration for half-maximal inhibition (IC50) against SREBP-2 is less than 250 nM. Besides, on LXRβ, the EC50 was more than 10000 nM.

At SREBP-2, `C[C@H](CCC(=O)N1CCN(C(=O)N(C)C)[C@@H](C)C1)[C@H]1CC[C@H]2[C@@H]3CC=C4C[C@@H](O)CC[C@]4(C)[C@H]3CC[C@]12C` [Example 573, (2S)-4-[(4R)-4-[(1R,3aS,3bS,7S,9aR,9bS,11aR)-7-hydroxy-9a,11a-dimethyl-1H,2H,3H,3aH,3bH,4H,6H,7H,8H,9H,9aH,9bH,10H,11H,11aH-cyclopenta[a]phenanthren-1-yl]pentanoyl]-N,N,2-trimethylpiperazine-1-carboxamide] showed an IC50 of less than 250 nM. For the same compound, the EC50 at LXRβ is more than 10000 nM.

Compound `C[C@H](CCC(=O)N1CCN(C(=O)c2cn(C)nn2)[C@@H](C)C1)[C@H]1CC[C@H]2[C@@H]3CC=C4C[C@@H](O)CC[C@]4(C)[C@H]3CC[C@]12C` [Example 574, (R)-4-((3S,8S,9S,10R,13R,14S,17R)-3-hydroxy-10,13-dimethyl-2,3,4,7,8,9,10,11,12,13,14,15,16,17-tetradecahydro-1H-cyclopenta[a]phenanthren-17-yl)-1-((S)-3-methyl-4-(1-methyl-1H-1,2,3-triazole-4-carbonyl)piperazin-1-yl)pentan-1-one] showed an IC50 against SREBP-2 of less than 250 nM. The EC50 on LXRβ is more than 10000 nM.
